{"source": "patent US4981950A", "about": "“Vasoconstrictor peptide” (Takeda Chemical Ind., Ltd., priority 1987, dated 1991)", "key": {"[1]": {"test_system": "porcine right coronary artery", "test": "Assay of vascular smooth muscle constrictor activity (isometric tension of intima-denuded artery spiral specimens)", "conditions": "assay (1); purified compound I from porcine aortic endothelial cell culture supernatant; Krebs-Ringer solution, 37° C.", "experimental": "Porcine right coronary artery spiral specimens (2×20 mm) with the intima denuded by rubbing with a small swab are suspended in 3 ml of Krebs-Ringer solution maintained at 37° C. and saturated with the mixed gas containing 5% carbon dioxide and 95% oxygen by volume. After setting the basal tension to 1 g, the isometric tension is measured with tension transducers.\n(§1) The activity of the compound I obtained in 2 (iii) above was assayed by the method of Reference Example (1) and (2)."}, "guinea pig right atrium": {"test_system": "guinea pig right atrium", "test": "Assay of cardiotonic action (tension and heart rate of suspended right atrium specimens)", "conditions": "assay (2); purified compound I from porcine aortic endothelial cell culture supernatant", "experimental": "Instead of the porcine right coronary artery spiral specimens used in the assay described in the above item (1), guinea pig right atrium suspended specimens are used, and the tension and the heart rate per minute are measured according to the same procedure as described in (1). (3) ED50\nas §1"}}}
{"smiles": "CC[C@H](C)[C@H](NC(=O)[C@H](CC(=O)O)NC(=O)[C@H](CC(C)C)NC(=O)[C@H](Cc1c[nH]cn1)NC(=O)[C@@H]1CSSC[C@H](N)C(=O)N[C@@H](CO)C(=O)N[C@H]2CSSC[C@H](NC(=O)[C@H](CCC(=O)O)NC(=O)[C@H](CCCCN)NC(=O)[C@H](CC(=O)O)NC(=O)[C@H](CCSC)NC(=O)[C@H](CC(C)C)NC(=O)[C@H](CO)NC(=O)[C@H](CO)NC2=O)C(=O)N[C@@H](C(C)C)C(=O)N[C@@H](Cc2ccc(O)cc2)C(=O)N[C@@H](Cc2ccccc2)C(=O)N1)C(=O)N[C@H](C(=O)N[C@@H](Cc1c[nH]c2ccccc12)C(=O)O)[C@@H](C)CC", "note": "[compound I]", "values": [{"measurement": "ED50 for smooth muscle constrictor activity to porcine coronary artery", "setting": "[1]", "value": "4 to 5×10^-10 mole/l"}, {"measurement": "ED50 for cardiotonic action to guinea pig right atrium", "setting": "guinea pig right atrium", "value": 1, "unit": "nM"}]}
